From patent publication US10889555B2, “Sulfonamide compound or salt thereof” (Taiho Pharmaceutical Co., Ltd., priority 2016, dated 2021) come the findings set out here.

The test concerns HCC 1806 cells. Briefly: Cell proliferation inhibitory effect on human breast cancer cell line (crystal violet, 72 hours). It is filed as cell-based. The note with it: Homo sapiens, HCC1806, 72 h, read-out: Cell growth suppression IC50. In outline: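 Cells were seeded at 2,000/well in RPMI-1640 with 10% FBS and grown 1 day, then exposed to compound for 72 h at 37° C, 5% CO2. After glutaraldehyde fixation and 0.05% crystal violet staining, extracted dye was read at 540 nm. IC50 (μM) came from growth inhibition relative to untreated and cell-free wells.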
In general, IC50 refers to the concentration at which inhibition is half-maximal. For the molecule `COc1c(S(=O)(=O)N[C@H](c2n[nH]c(=O)o2)[C@H](C)c2c(F)ccc(C)c2C)ccc(Cl)c1C(C)O` (stereo partly drawn) [Example 204, 4-chloro-N-((1S,2R)-2-(6-fluoro-2,3-dimethylphenyl)-1-(5-oxo-4,5-dihydro-1,3,4-oxadiazol-2-yl)propyl)-3-(1-hydroxyethyl)-2-methoxybenzenesulfonamide], the IC50 is 150 nM.

With `COc1c(S(=O)(=O)N[C@H](c2n[nH]c(=O)o2)[C@H](C)c2c(F)ccc3ccccc23)ccc(Cl)c1C(C)O` (stereo partly drawn) [Example 205, 4-chloro-N-((1S,2R)-2-(2-fluoronaphthalene-1-yl)-1-(5-oxo-4,5-dihydro-1,3,4-oxadiazol-2-yl)propyl)-3-(1-hydroxyethyl)-2-methoxybenzenesulfonamide], the IC50 came out at 250 nM.

As to `CCc1ccc(F)c([C@@H](C)[C@H](NS(=O)(=O)c2ccc(Cl)c(C(C)O)c2OC)c2n[nH]c(=O)o2)c1C` (stereo partly drawn) [Example 206A, 4-chloro-N-((1S,2R)-2-(3-ethyl-6-fluoro-2-methylphenyl)-1-(5-oxo-4,5-dihydro-1,3,4-oxadiazol-2-yl)propyl)-3-(1-hydroxyethyl)-2-methoxybenzenesulfonamide], the IC50 is 570 nM.

For `Cc1ccc(F)c([C@@H](C)[C@H](NS(=O)(=O)c2cccc3c2OCCC3(O)C(F)(F)F)c2n[nH]c(=O)o2)c1C` (stereo partly drawn) [Example 211A, N-((1S,2R)-2-(6-fluoro-2,3-dimethylphenyl)-1-(5-oxo-4,5-dihydro-1,3,4-oxadiazol-2-yl)propyl)-4-hydroxy-4-(tifluoromethyl)chroman-8-sulfonamide], the IC50 worked out at 850 nM.

For the molecule `COc1c(S(=O)(=O)N[C@H](c2n[nH]c(=O)o2)[C@H](C)c2c(F)ccc(C)c2C)ccc(Cl)c1C(C)(C)O` [Example 212, 4-chloro-N-((1S,2R)-2-(6-fluoro-2,3-dimethylphenyl)-1-(5-oxo-4,5-dihydro-1,3,4-oxadiazol-2-yl)propyl)-3-(2-hydroxypropan-2-yl)-2-methoxybenzenesulfonamide], the IC50 turned out to be 260 nM.

As for `COc1c(S(=O)(=O)N[C@H](c2n[nH]c(=O)o2)[C@H](C)c2c(F)ccc(C)c2C)ncc(Cl)c1C(C)O` (stereo partly drawn) [Example 216, 5-chloro-N-((1S,2R)-2-(6-fluoro-2,3-dimethylphenyl)-1-(5-oxo-4,5-dihydro-1,3,4-oxadiazol-2-yl)propyl)-4-(1-hydroxyethyl)-3-methoxypyridine-2-sulfonamide], the IC50 amounted to 670 nM.

For `Cc1cccc2cccc([C@@H](C)[C@H](NS(=O)(=O)c3ccc(Cl)c4c3OCCC4O)c3n[nH]c(=O)o3)c12` (stereo partly drawn) [Example 232, 5-chloro-4-hydroxy-N-((1S,2R)-2-(8-methylnaphthalene-1-yl)-1-(5-oxo-4,5-dihydro-1,3,4-oxadiazol-2-yl)propyl)chroman-8-sulfonamide], the IC50 came to 330 nM.

On to `C[C@H](c1c(F)ccc2ccccc12)[C@H](NS(=O)(=O)c1ccc(Cl)c2c1OCCC2O)c1n[nH]c(=O)o1` (stereo partly drawn) [Example 233, 5-chloro-N-((1S,2R)-2-(2-fluoronaphthalene-1-yl)-1-(5-oxo 4,5-dihydro-1,3,4-oxadiazol-2-yl)propyl)-4-hydroxychroman-8-sulfonamide], for which the IC50 was found to be 280 nM.

Turning to `Cc1ccc(F)c([C@@H](C)[C@H](NS(=O)(=O)c2ccc(F)c3c2OCCC3O)c2n[nH]c(=O)o2)c1C` (stereo partly drawn) [Example 241, 5-fluoro-N-((1S,2R)-2-(6-fluoro-2,3-dimethylphenyl)-1-(5-oxo-4,5-dihydro-1,3,4-oxadiazol-2-yl)propyl)-4-hydroxychroman-8-sulfonamide], the IC50 was 490 nM.

Turning to `Cc1ccc(F)c([C@@H](C)[C@H](NS(=O)(=O)c2ncc(Cl)cc2C(N)=O)c2n[nH]c(=O)o2)c1C` [Example 245, 5-chloro-2-(N-((1S,2R)-2-(6-fluoro-2,3-dimethylphenyl)-1-(5-oxo-4,5-dihydro-1,3,4-oxadiazol-2-yl)propyl)sulfamoyl)nicotinamide], the IC50 came to 150 nM.

Consider `Cc1c(Cl)ccc(F)c1[C@@H](C)[C@H](NS(=O)(=O)c1ncc(Cl)cc1C(N)=O)c1n[nH]c(=O)o1` [Example 249, 5-chloro-2-(N-((1S,2R)-2-(3-chloro-6-fluoro-2-methylphenyl)-1-(5-oxo-4,5-dihydro-1,3,4-oxadiazol-2-yl)propyl)sulfamoyl)nicotinamide], for which the IC50 is 140 nM.

Consider `Cc1ccc(F)c([C@@H](C)[C@H](NS(=O)(=O)c2ncc(Br)cc2C(N)=O)c2n[nH]c(=O)o2)c1C` [Example 250, 5-bromo-2-(N-((1S,2R)-2-(6-fluoro-2,3-dimethylphenyl)-1-(5-oxo-4,5-dihydro-1,3,4-oxadiazol-2-yl)propyl)sulfamoyl)nicotinamide], for which the IC50 was 120 nM.

In the case of `CNC(=O)c1nc(S(=O)(=O)N[C@H](c2n[nH]c(=O)o2)[C@H](C)c2c(F)ccc(C)c2C)ccc1Cl` [Example 252, 3-chloro-6-(N-((1S,2R)-2-(6-fluoro-2,3-dimethylphenyl)-1-(5-oxo-4,5-dihydro-1,3,4-oxadiazol-2-yl)propyl)sulfamoyl)-N-methylpicolinamide], the IC50 worked out at 740 nM.

On to `Cc1ccc(F)c([C@@H](C)[C@H](NS(=O)(=O)c2ccc(Cl)c(C(=O)N(C)C)n2)c2n[nH]c(=O)o2)c1C` [Example 253, 3-chloro-6-(N-((1S,2R)-2-(6-fluoro-2,3-dimethylphenyl)-1-(5-oxo-4,5-dihydro-1,3,4-oxadiazol-2-yl)propyl)sulfamoyl)-N,N-dimethylpicolinamide], for which the IC50 stood at 230 nM.

In the case of `Cc1c(Cl)ccc(F)c1[C@@H](C)[C@H](NS(=O)(=O)c1ncc(Br)cc1C(N)=O)c1n[nH]c(=O)o1` [Example 254, 5-bromo-2-(N-((1S,2R)-2-(3-chloro-6-fluoro-2-methylphenyl)-1-(5-oxo-4,5-dihydro-1,3,4-oxadiazol-2-yl)propyl)sulfamoyl)nicotinamide], the IC50 stood at 250 nM.

For `Cc1ccc(F)c([C@@H](C)[C@H](NS(=O)(=O)c2cc(F)c(Cl)cc2C(N)=O)c2n[nH]c(=O)o2)c1C` [Example 255, 5-chloro-4-fluoro-2-(N-((1S,2R)-2-(6-fluoro-2,3-dimethylphenyl)-1-(5-oxo-4,5-dihydro-1,3,4-oxadiazol-2-yl)propyl)sulfamoyl)benzamide], the IC50 was found to be 480 nM.

Take `Cc1cc(S(=O)(=O)N[C@H](c2n[nH]c(=O)o2)[C@H](C)c2c(F)ccc(C)c2C)c(C(N)=O)cc1Cl` [Example 257, 5-chloro-2-(N-((1S,2R)-2-(6-fluoro-2,3-dimethylphenyl)-1-(5-oxo-4,5-dihydro-1,3,4-oxadiazol-2-yl)propyl)sulfamoyl)-4-methylbenzamide]: the IC50 stood at 200 nM.

Regarding `Cc1ccc(F)c([C@@H](C)[C@H](NS(=O)(=O)c2c(F)cc(Cl)cc2C(N)=O)c2n[nH]c(=O)o2)c1C` [Example 258, 5-chloro-3-fluoro-2-(N-((1S,2R)-2-(6-fluoro-2,3-dimethylphenyl)-1-(5-oxo-4,5-dihydro-1,3,4-oxadiazol-2-yl)propyl)sulfamoyl)benzamide], the IC50 came to 580 nM.

For `COc1cc(S(=O)(=O)N[C@H](c2n[nH]c(=O)o2)[C@H](C)c2c(F)ccc(C)c2C)c(C(N)=O)cc1Cl` [Example 259, 5-chloro-2-(N-((1S,2R)-2-(6-fluoro-2,3-dimethylphenyl)-1-(5-oxo-4,5-dihydro-1,3,4-oxadiazol-2-yl)propyl)sulfamoyl)-4-methoxybenzamide], the IC50 was 350 nM.

As for `Cc1ccc(F)c([C@@H](C)[C@H](NS(=O)(=O)c2cc3c(cc2C(N)=O)OCCO3)c2n[nH]c(=O)o2)c1C` [Example 261, 7-(N-((1S,2R)-2-(6-fluoro-2,3-dimethylphenyl)-1-(5-oxo-4,5-dihydro-1,3,4-oxadiazol-2-yl)propyl)sulfamoyl)-2,3-dihydrobenzo[b][1,4]dioxin-6-carboxamide], the IC50 came out at 720 nM.

For `Cc1ccc(F)c([C@@H](C)[C@H](NS(=O)(=O)c2cc([N+](=O)[O-])c(Cl)cc2C(N)=O)c2n[nH]c(=O)o2)c1C` [Example 262, 5-chloro-2-(N-((1S,2R)-2-(6-fluoro-2,3-dimethylphenyl)-1-(5-oxo-4,5-dihydro-1,3,4-oxadiazol-2-yl)propyl)sulfamoyl)-4-nitrobenzamide], the IC50 came to 170 nM.

As to `Cc1c(Br)ccc(F)c1[C@@H](C)[C@H](NS(=O)(=O)c1ncc(Cl)cc1C(N)=O)c1n[nH]c(=O)o1` [Example 264, 2-(N-((1S,2R)-2-(3-bromo-6-fluoro-2-methylphenyl)-1-(5-oxo-4,5-dihydro-1,3,4-oxadiazol-2-yl)propyl)sulfamoyl)-5-chloronicotinamide], the IC50 is 760 nM.

Regarding `Cc1ccc(F)c([C@@H](C)[C@H](NS(=O)(=O)c2ccc(Cl)c3c2OCC(=O)N3CCO)c2n[nH]c(=O)o2)c1C` [Example 273, 5-chloro-N-((1S,2R)-2-(6-fluoro-2,3-dimethylphenyl)-1-(5-oxo-4,5-dihydro-1,3,4-oxadiazol-2-yl)propyl)-4-(2-hydroxyethyl)-3-oxo-3,4-dihydro-2H-benzo[b][1,4]oxazine-8-sulfonamide], the IC50 amounted to 810 nM.

With `Cc1ccc(F)c([C@@H](C)[C@H](NS(=O)(=O)c2ccc(Cl)c3c2OCCN3)c2n[nH]c(=O)o2)c1C` [Example 275, 5-chloro-N-((1S,2R)-2-(6-fluoro-2,3-dimethylphenyl)-1-(5-oxo-4,5-dihydro-1,3,4-oxadiazol-2-yl)propyl)-3,4-dihydro-2H-benzo[b][1,4]oxazine-8-sulfonamide], the IC50 is 370 nM.

With `Cc1ccc(F)c([C@@H](C)[C@H](NS(=O)(=O)c2ccc(Cl)c3c2OCCC3N)c2n[nH]c(=O)o2)c1C` (stereo partly drawn) [Example 278, 4-amino-5-chloro-N-((1S,2R)-2-(6-fluoro-2,3-dimethylphenyl)-1-(5-oxo-4,5-dihydro-1,3,4-oxadiazol-2-yl)propyl)chroman-8-sulfonamide], the half-inhibitory concentration (IC50) was 590 nM.

On to `Cc1ccc(F)c([C@@H](C)[C@H](NS(=O)(=O)c2ccc(Cl)c3c2OCCN3C)c2n[nH]c(=O)o2)c1C` [Example 288, 5-chloro-N-((1S,2R)-2-(6-fluoro-2,3-dimethylphenyl)-1-(5-oxo-4,5-dihydro-1,3,4-oxadiazol-2-yl)propyl)-4-methyl-3,4-dihydro-2H-benzo[b][1,4]oxazine-8-sulfonamide], for which the IC50 was found to be 150 nM.
